SMILES strings stand for the structures. “And” between values parts separate entries of the source, which are not always exact repeats. Identical values can stand only once.

Data set [1] has as its target T1, EV-D68 2A^pro (WT-2A^pro, strain US/KY/14-18953, expressed in E. coli BL21(DE3) from pE-SUMOstar vector) (enterovirus D68, UniProt A0A097BW19).
T1 construct: E. coli-codon-optimised gene, pE-SUMOstar, His-SUMO tag (removed with SUMO protease for nontagged form), E. coli BL21(DE3), Ni-NTA; 7JRE is the C107A mutant
In words: FRET-based enzymatic assay of EV-D68 2A^pro inhibition (FRET substrate Dabcyl-KIRIVNT/GPGFGGE-Edans). It is filed as biochemical. As for the experimental part:
FIG. 4. […] Key structural variations compared to telaprevir were highlighted in red. Enzymatic inhibitory activity IC50 value was determined in the FRET-based assay. Antiviral EC50 value was determined in the CPE assay with EV-D68 US/MO/14-18947 in R.D. cells. Cytotoxicity CC50 value was determined using the neutral red uptake method in R.D. cells. The results are the mean±standard deviation of two independent experiments with three repeats in each experiment.
FIG. 5. […] Key structural variations compared to Jun8861 were highlighted in red. Enzymatic inhibitory activity IC50 value was determined in the FRET-based assay. Antiviral EC50 value was determined in the CPE assay with EV-D68 US/MO/14-18947 in R.D. cells. Cytotoxicity CC50 value was determined using the neutral red uptake method in R.D. cells. The results are the mean±standard deviation of two independent experiments with three repeats in each experiment.
(§1) Protein expression and purification. EV-D68 2A^pro gene from strain US/KY/14-18953 was ordered from Genscript (Piscataway, NJ) in pET28b(+) vector with E. coli codon optimization. 2A^pro gene was subcloned into pE-SUMOstar vector according to the manufacturers protocol. Plasmid encoding WT-2A^pro was transformed into BL21(DE3) competent E. coli cells, and a single colony was picked and used to inoculate 10 mL of L.B. grown supplemented with 50 μg/mL kanamycin at 37° C. at 250 rpm. The 10 mL inoculant was added to 1 L of L.B. with 50 μg/mL kanamycin and grown to an OD600 of 0.8-1.0, cooled to 18° C., then induced using 0.5 mM IPTG. Induced cultures were incubated at 18° C. for an additional 24 h, then harvested and resuspended in lysis buffer (25 mM Tris (pH 7.5); 750 mM NaCl, 2 mM DTT with 0.5 mg/mL lysozyme, 0.5 mM PMSF and 0.02 mg/mL DNase I) and lysed with alternating sonication and French press cycles. The cell debris were removed by centrifugation at 12,000×g for 45 min […]. The supernatant was incubated with Ni-NTA resin for over 2 h at 4° C. on a rotator. The Ni-NTA resin was thoroughly washed with 50 mM imidazole in wash buffer (50 mM Tris (pH 7.5), 150 mM NaCl, and 2 mM DTT); for the SUMO-tagged protein, the protein was directly eluted with 300 mM imidazole; for the nontagged 2A^pro Ni-NTA resin was treated with SUMO Protease 1 to remove the SUMO tag, then 2A^pro was washed off from the column with 10 mM imidazole in wash buffer. The imidazole was removed via dialysis or 10 K molecular weight cut-off centrifugal concentrator spin column. The purity of the protein was confirmed with SDS-PAGE. The protein concentration was determined by classic BCA assay using bovine serum albumin as a standard. EV-D68 3C^pro in pET28b(+) vector was expressed as previously described^10.
(§2) Peptide synthesis. The FRET substrate of EV-D68 2A^pro, Dabcyl-KIRIVNT/GPGFGGE-Edans, was synthesized using the Fmoc solid phase synthesis strategy.
(§3) Enzymatic assays. The reaction buffer contains 50 mM Tris (pH7.0), 150 mM NaCl, 10% Glycerol, and 2 mM DTT, and the reaction was carried out at 30° C. in Cytation 5 imaging reader (Fisher Scientific) with EX360/40-EM460/40 filter. Reactions were monitored every 90 sec. […] The reaction was initiated by adding 20 μM of FRET substrate, and the reaction was monitored for 2 hours and initial velocity was calculated for the first 30 minutes via linear regression.

Data set [2] concerns the target EV-D68 2A^pro (Enterovirus D68, UniProt A0A097BW19). In words: FRET-based enzymatic assay of EV-D68 2Apro inhibition. The data set is classed as biochemical. Particulars: for IC50: read-out: Enzymatic inhibitory activity IC50. The protocol: as §1, §2, §3
Data set [3] relates to EV-D68 US/MO/14-18947. In words: CPE assay (neutral red) with EV-D68 US/MO/14-18947 in R.D. cells. It is filed as cell-based, Enterovirus D68. As for the experimental part:
(§4) Cell lines and viruses. Human rhabdomyosarcoma (R.D., ATCC, CCL-136) cells were maintained at 37° C. in a 5% CO2 atmosphere and cultured in Dulbecco's modified Eagle's medium (DMEM) supplemented with 10% fetal bovine serum (FBS) and 1% penicillin-streptomycin antibiotics. The following reagents were obtained through BEI Resources, NIAID, NIH: Human Enterovirus D68, US/MO/14-18949, NR-49130; Enterovirus D68, US/MO/14-18947, NR-49129; Enterovirus D68, US/IL/14-18952, NR-49131; Enterovirus D68, US/KY/14-18953, NR-49132; Enterovirus D68, US/IL/14-18956, NR-49133.
(§5) Antiviral assays. Cells for antiviral assays were seeded and grown overnight at 37° C. in a 5% CO2 atmosphere for ˜90% confluency the next day. For all infections, cells were washed with PBS containing magnesium and calcium and infected with virus diluted in DMEM with 2% FBS and 30 mM MgCl2. Viruses were incubated for at least 1 h at 33° C. in a 5% CO2 atmosphere, followed by the addition of compound as well as 1% penicillin-streptomycin. For CC50 measurements, the experiment was performed similarly but excluded viral infection. For cytopathic effect (CPE) assays, cells were stained with 66 µg/mL neutral red for 2 h and neutral red uptake was measured at absorbance 540 nm using a Multiskan FC Microplate Photometer (ThermoFisher Scientific). The EC50 and CC50 values were calculated from best-fit dose response curves using GraphPad Prism. For plaque reduction assays, an 1.2% avicel microcrystalline cellulose (FMC BioPolymer, Philadelphia, PA) overlay was used and cells were stained after 3 days as previously described^26.

A short description of data set [4]: Cytotoxicity by neutral red uptake in R.D. cells, no viral infection. It is filed as cell-based, Human. Particulars: human, R.D. (rhabdomyosarcoma, ATCC CCL-136) cells, uninfected. As for the experimental part:
as §4, §5

The test system of data set [5] is R.D. cells. Described as above. The data set is classed as cell-based, Human. The protocol: as §4, §5
Data set [6] relates to EV-D68 US/MO/14-18947. In words: Secondary plaque reduction assay with EV-D68 US/MO/14-18947. The data set is classed as cell-based, Enterovirus D68. As for the experimental part: as §4
as §5, with “For CC50 measurements, the experiment was performed similarly but excluded viral infection.” left out, “For plaque reduction assays, an 1.2% avicel microcrystalline cellulose (FMC BioPolymer, Philadelphia, PA) overlay was used and cells were stained after 3 days as previously described^26.” left out
(Plaques are areas of infected cells; plaque reduction assays count them against a control.)

The mark [7] stands for this setting: CPE assay, EV-D68 US/MO/14-18947 in R.D. cells.
The mark [8] stands for this setting: Enterovirus D, EVD68, RD, read-out: Antiviral EC50, CPE assay, EV-D68 US/MO/14-18947 in R.D. cells.

`CCC[C@H](NC(=O)[C@@H]1[C@H]2CCC[C@H]2CN1C(=O)[C@@H](NC(=O)Cc1ccccc1)C(C)(C)C)C(=O)C(=O)NC1CC1` [Jun8681, (1S,3aR,6aS)—N—((S)-1-(cyclopropylamino)-1,2-dioxohexan-3-yl)-2-((S)-3,3-dimethyl-2-(2-phenylacetamido)butanoyl)octahydrocyclopenta[c]pyrrole-1-carboxamide] registered a 50% inhibitory concentration (IC50) in data set [1] of 250 ± 20 nM. Also, the “enzymatic inhibition, in words, relative to the named comparator” value in data set [2] was “reduced enzymatic inhibition and antiviral activity compared to telaprevir”. Also, the “antiviral activity, in words, relative to the named comparator” value in data set [3] (setting [7]) is “reduced enzymatic inhibition and antiviral activity compared to telaprevir”.
In data set [1], `CCC[C@H](NC(=O)[C@@H]1[C@H]2CCC[C@H]2CN1C(=O)[C@@H](NC(=O)OCc1ccccc1)C(C)(C)C)C(=O)C(=O)NC1CC1` [Jun7426, Benzyl ((S)-1-((1S,3aR,6aS)-1-(((S)-1-(cyclopropylamino)-1,2-dioxohexan-3-yl)carbamoyl)hexahydrocyclopenta[c]pyrrol-2(1H)-yl)-3,3-dimethyl-1-oxobutan-2-yl)carbamate] yielded an IC50 of 760 ± 100 nM. For the same molecule, the “enzymatic inhibition, in words, relative to the named comparator” value in data set [2] was “reduced enzymatic inhibition and antiviral activity compared to telaprevir”. Also, the “antiviral activity, in words, relative to the named comparator” value in data set [3] (setting [7]) is “reduced enzymatic inhibition and antiviral activity compared to telaprevir”.
As for `CCC[C@H](NC(=O)[C@@H]1[C@H]2CCC[C@H]2CN1C(=O)[C@@H](NC(=O)CC1CCCC1)C(C)(C)C)C(=O)C(=O)NC1CC1` [Jun971, (1S,3aR,6aS)-2-((S)-2-(2-cyclopentylacetamido)-3,3-dimethylbutanoyl)-N—((S)-1-(cyclopropylamino)-1,2-dioxohexan-3-yl)octahydrocyclopenta[c]pyrrole-1-carboxamide], the IC50 in data set [1] is 100 ± 10 nM; in data set [2] it was 80 to 140 nM. Besides, the EC50 in data set [3] (setting [8]) was in the range of 160 to 750 nM.
For `CCC[C@H](NC(=O)[C@@H]1[C@H]2CCC[C@H]2CN1C(=O)[C@@H](NC(=O)C=Cc1ccccc1)C(C)(C)C)C(=O)C(=O)NC1CC1` [Jun8813, (1S,3aR,6aS)-2-((S)-2-cinnamamido-3,3-dimethylbutanoyl)-N—((S)-1-(cyclopropylamino)-1,2-dioxohexan-3-yl)octahydrocyclopenta[c]pyrrole-1-carboxamide], 760 ± 320 nM corresponded to half-maximal inhibition in data set [1] (IC50). Also, the “enzymatic inhibition, in words, relative to the named comparator” value in data set [2] was “reduced enzymatic inhibition and antiviral activity compared to telaprevir”. In data set [3] (setting [7]), the “antiviral activity, in words, relative to the named comparator” value was “reduced enzymatic inhibition and antiviral activity compared to telaprevir”.
With `CCC[C@H](NC(=O)[C@@H]1[C@H]2CCC[C@H]2CN1C(=O)[C@@H](NC(=O)CC1CCC(F)(F)CC1)C(C)(C)C)C(=O)C(=O)NC1CC1` [Jun975, (1S,3aR,6aS)—N—((S)-1-(cyclopropylamino)-1,2-dioxohexan-3-yl)-2-((S)-2-(2-(4,4-difluorocyclohexyl)acetamido)-3,3-dimethylbutanoyl)octahydrocyclopenta[c]pyrrole-1-carboxamide], the IC50 is 140 ± 10 nM in data set [1] and 80 to 140 nM in data set [2]. For the same molecule, in data set [3] (setting [8]), the EC50 was 160 to 750 nM.
In the case of `CC(C)(C)C(NC(=O)CC12CC3CC(CC(C3)C1)C2)C(=O)N1CC2CCCC2C1C(=O)NC(Cc1ccccc1)C(=O)C(=O)NC1CC1` [Jun11385, (1S,3aR,6aS)-2-((S)-2-(2-((3S,5S,7S)-adamantan-1-yl)acetamido)-3,3-dimethylbutanoyl)-N—((S)-4-(cyclopropylamino)-3,4-dioxo-1-phenylbutan-2-yl)octahydrocyclopenta[c]pyrrole-1-carboxamide], in data set [4], the 50% cytotoxic concentration (CC50) was 17.4 µM.
Molecule `CCC[C@H](NC(=O)[C@@H]1[C@H]2CCC[C@H]2CN1C(=O)[C@@H](NC(=O)CC12CC3CC(CC(C3)C1)C2)C(C)(C)C)C(=O)C(=O)NC1CC1` [Jun8861] gave a CC50 in data set [5] of 36.2 µM. Moreover, in data set [2], the concentration for half-maximal inhibition (IC50) is 80 to 140 nM and 80 nM. The EC50 in data set [3] (setting [8]) was 160 to 750 nM; in data set [3] (read-out: Antiviral EC50, CPE assay, EV-D68 US/MO/14-18947 in R.D. cells), 160 nM.
`CCC(C)[C@H](NC(=O)[C@@H]1[C@H]2CCC[C@H]2CN1C(=O)[C@@H](NC(=O)CC12CC3CC(CC(C3)C1)C2)C(C)(C)C)C(=O)C(=O)NC1CC1` (stereo partly drawn) [Jun11756, (1S,3aR,6aS)-2-((S)-2-(2-((3S,5S,7S)-adamantan-1-yl)acetamido)-3,3-dimethylbutanoyl)-N-((3S,4S)-1-(cyclopropylamino)-4-methyl-1,2-dioxohexan-3-yl)octahydrocyclopenta[c]pyrrole-1-carboxamide]: the “enzymatic inhibition, in words, relative to the named comparator” value in data set [2] is “comparable enzymatic inhibition and antiviral activity as Jun8861”. For the same molecule, in data set [3] (setting [7]), the “antiviral activity, in words, relative to the named comparator” value is “comparable enzymatic inhibition and antiviral activity as Jun8861”. Also, in data set [6], the EC50 was found to be 13.5 nM.
In data set [1], `CC(C)(C)[C@H](NC(=O)CC12CC3CC(CC(C3)C1)C2)C(=O)N1C[C@@H]2CCC[C@@H]2[C@H]1C(=O)N[C@H](C(=O)C(=O)NC1CC1)C1CCCC1` [Jun11808, (1S,3aR,6aS)-2-((S)-2-(2-((3S,5S,7S)-adamantan-1-yl)acetamido)-3,3-dimethylbutanoyl)-N—((S)-1-cyclopentyl-3-(cyclopropylamino)-2,3-dioxopropyl)octahydrocyclopenta[c]pyrrole-1-carboxamide] returned an IC50 of 200 ± 70 nM. Further, the “enzymatic inhibition, in words, relative to the named comparator” value in data set [2] is “comparable enzymatic inhibition and antiviral activity as Jun8861”. In data set [3] (setting [7]), the “antiviral activity, in words, relative to the named comparator” value was “comparable enzymatic inhibition and antiviral activity as Jun8861”.

One may read the IC50 as the concentration that gives 50% inhibition. In general, CC50 refers to the concentration that lowers cell viability or growth by half. A higher CC50 goes with lower toxicity to the cells.
